Data reported in PMC5218480 (PLoS ONE, 2017).

Tested on: MV-4-11 cells
Assay: Gene expression microarray analysis (Affymetrix PrimeView) and GSEA
Assay type: cell-based, human
Parameters: RFU PODN (11730768_x_at) / Fold change /veh PODN (11730768_x_at) / RFU LINC00158 (11744669_a_at) / Fold change /veh LINC00158 (11744669_a_at) / RFU DUSP10 (11751237_a_at) / Fold change /veh DUSP10 (11751237_a_at) / RFU ID3 (11757404_x_at) / Fold change /veh ID3 (11757404_x_at) / RFU PLEKHG5 (11737974_s_at) / Fold change /veh PLEKHG5 (11737974_s_at) / RFU LRRC4B (11730491_at) / Fold change /veh LRRC4B (11730491_at) / RFU GIMAP4 (11747438_a_at) / Fold change /veh GIMAP4 (11747438_a_at) / RFU KRT8 (11758183_x_at) / Fold change /veh KRT8 (11758183_x_at) / RFU CNN1 (11734310_a_at) / Fold change /veh CNN1 (11734310_a_at) / RFU VPS37D (11726825_at) / Fold change /veh VPS37D (11726825_at) / RFU C10orf10 (11716522_x_at) / Fold change /veh C10orf10 (11716522_x_at) / RFU KIR2DL2 /// KIR2DL4 /// KIR2DL5A /// KIR2DL5B /// KIR2DS1 /// KIR2DS2 /// KIR2DS3 /// KIR2DS4 /// KIR3DL3 /// KIR3DL3 /// KIR3DS1 (11738374_at) / Fold change /veh KIR2DL2 /// KIR2DL4 /// KIR2DL5A /// KIR2DL5B /// KIR2DS1 /// KIR2DS2 /// KIR2DS3 /// KIR2DS4 /// KIR3DL3 /// KIR3DL3 /// KIR3DS1 (11738374_at) / RFU C1QL1 (11718748_at) / Fold change /veh C1QL1 (11718748_at) / RFU TMPRSS4 (11747572_a_at) / Fold change /veh TMPRSS4 (11747572_a_at) / RFU HAMP (11756126_x_at) / Fold change /veh HAMP (11756126_x_at) / RFU RNFT2 (11725882_a_at) / Fold change /veh RNFT2 (11725882_a_at) / RFU NR4A2 (11747474_a_at) / Fold change /veh NR4A2 (11747474_a_at) / RFU ABCC12 (11746883_a_at) / Fold change /veh ABCC12 (11746883_a_at) / RFU TMEM136 (11760407_x_at) / Fold change /veh TMEM136 (11760407_x_at) / RFU CLDN22 /// WWC2 (11732394_at) / Fold change /veh CLDN22 /// WWC2 (11732394_at) / RFU HLA-DPB1 (11760878_x_at) / Fold change /veh HLA-DPB1 (11760878_x_at) / RFU SPINT1 (11716480_a_at) / Fold change /veh SPINT1 (11716480_a_at) / RFU GAP43 (11754022_s_at) / Fold change /veh GAP43 (11754022_s_at) / RFU A4GNT (11735810_at) / Fold change /veh A4GNT (11735810_at) / RFU PRB3 (11715151_x_at) / Fold change /veh PRB3 (11715151_x_at) / RFU TUBB4B (11761932_at) / Fold change /veh TUBB4B (11761932_at) / RFU CAPN14 (11732068_a_at) / Fold change /veh CAPN14 (11732068_a_at) / RFU TMCC2 (11721928_a_at) / Fold change /veh TMCC2 (11721928_a_at) / RFU IRGQ (11745062_a_at) / Fold change /veh IRGQ (11745062_a_at) / RFU FAM174B (11720279_a_at) / Fold change /veh FAM174B (11720279_a_at) / RFU TMPRSS4 (11748680_a_at) / Fold change /veh TMPRSS4 (11748680_a_at) / RFU FAM212B (11763350_a_at) / Fold change /veh FAM212B (11763350_a_at) / RFU PLEKHG5 (11743358_a_at) / Fold change /veh PLEKHG5 (11743358_a_at) / RFU ZSCAN30 (11745921_a_at) / Fold change /veh ZSCAN30 (11745921_a_at) / RFU CMKLR1 (11741424_a_at) / Fold change /veh CMKLR1 (11741424_a_at) / RFU LOC101060620 /// MAPK8IP1 (11723275_at) / Fold change /veh LOC101060620 /// MAPK8IP1 (11723275_at) / RFU SPTSSB (11747773_x_at) / Fold change /veh SPTSSB (11747773_x_at) / RFU PRSS12 (11739890_at) / Fold change /veh PRSS12 (11739890_at) / RFU BIN1 (11741810_x_at) / Fold change /veh BIN1 (11741810_x_at) / RFU WNT11 (11732464_a_at) / Fold change /veh WNT11 (11732464_a_at) / RFU C10orf10 (11716521_a_at) / Fold change /veh C10orf10 (11716521_a_at) / RFU C5orf56 (11738089_at) / Fold change /veh C5orf56 (11738089_at) / RFU CYB561 (11721691_x_at) / Fold change /veh CYB561 (11721691_x_at) / RFU ANKRD19P (11752326_a_at) / Fold change /veh ANKRD19P (11752326_a_at) / RFU OR2T12 /// OR2T33 /// OR2T8 (11738714_s_at) / Fold change /veh OR2T12 /// OR2T33 /// OR2T8 (11738714_s_at) / RFU VCAN (11748164_a_at) / Fold change /veh VCAN (11748164_a_at) / RFU JSRP1 (11732532_at) / Fold change /veh JSRP1 (11732532_at) / RFU KRTAP10-11 (11738290_x_at) / Fold change /veh KRTAP10-11 (11738290_x_at) / RFU MYO3A (11730013_a_at) / Fold change /veh MYO3A (11730013_a_at) / RFU EBF3 (11725865_a_at) / Fold change /veh EBF3 (11725865_a_at) / RFU CAMK2N1 (11719241_x_at) / Fold change /veh CAMK2N1 (11719241_x_at) / RFU C5orf56 (11738088_a_at) / Fold change /veh C5orf56 (11738088_a_at) / RFU OLFML3 (11715873_a_at) / Fold change /veh OLFML3 (11715873_a_at) / RFU LOC100653217 /// NTM (11731650_a_at) / Fold change /veh LOC100653217 /// NTM (11731650_a_at) / RFU MAPK11 (11762145_a_at) / Fold change /veh MAPK11 (11762145_a_at) / RFU FIZ1 (11724087_x_at) / Fold change /veh FIZ1 (11724087_x_at) / RFU OASL (11726364_x_at) / Fold change /veh OASL (11726364_x_at) / RFU SOX15 (11748057_x_at) / Fold change /veh SOX15 (11748057_x_at) / RFU CD79A (11719716_a_at) / Fold change /veh CD79A (11719716_a_at) / RFU HIST1H1D (11736915_at) / Fold change /veh HIST1H1D (11736915_at) / RFU CASKIN2 (11723855_a_at) / Fold change /veh CASKIN2 (11723855_a_at) / RFU LOC730098 (11760151_x_at) / Fold change /veh LOC730098 (11760151_x_at) / RFU OR4N2 (11742367_at) / Fold change /veh OR4N2 (11742367_at) / RFU PRRT2 (11749266_a_at) / Fold change /veh PRRT2 (11749266_a_at) / RFU SNX32 (11753110_a_at) / Fold change /veh SNX32 (11753110_a_at) / RFU CDHR5 (11726645_a_at) / Fold change /veh CDHR5 (11726645_a_at) / RFU RCAN1 (11760418_a_at) / Fold change /veh RCAN1 (11760418_a_at) / RFU FAM167A (11723789_a_at) / Fold change /veh FAM167A (11723789_a_at) / RFU FAM26E (11764081_at) / Fold change /veh FAM26E (11764081_at) / RFU ISYNA1 (11749810_s_at) / Fold change /veh ISYNA1 (11749810_s_at) / RFU ACY1 (11761880_at) / Fold change /veh ACY1 (11761880_at) / RFU 11764098_at / Fold change /veh 11764098_at / RFU SAMD14 (11745864_x_at) / Fold change /veh SAMD14 (11745864_x_at) / RFU NPB (11741838_a_at) / Fold change /veh NPB (11741838_a_at) / RFU TMPRSS6 (11731388_a_at) / Fold change /veh TMPRSS6 (11731388_a_at) / RFU KRTAP10-2 (11738614_at) / Fold change /veh KRTAP10-2 (11738614_at) / RFU ARHGAP8 /// PRR5-ARHGAP8 (11727945_x_at) / Fold change /veh ARHGAP8 /// PRR5-ARHGAP8 (11727945_x_at) / RFU KRTAP5-7 /// NADSYN1 (11734609_at) / Fold change /veh KRTAP5-7 /// NADSYN1 (11734609_at) / RFU RASL12 (11751679_a_at) / Fold change /veh RASL12 (11751679_a_at) / RFU CDKN2B (11736163_a_at) / Fold change /veh CDKN2B (11736163_a_at) / RFU PRF1 (11729649_at) / Fold change /veh PRF1 (11729649_at) / RFU, ZNF638 /// ZNF638-IT1 / Fold change vs veh, ZNF638 /// ZNF638-IT1 / RFU, PANK3 / Fold change vs veh, PANK3 / RFU, SH3YL1 / Fold change vs veh, SH3YL1 / RFU, ZEB2 / Fold change vs veh, ZEB2 / RFU, NRIP1 / Fold change vs veh, NRIP1 / RFU, PTTG1IP / Fold change vs veh, PTTG1IP / RFU, CAPN2 / Fold change vs veh, CAPN2 / RFU, MED14 / Fold change vs veh, MED14 / RFU, SNORA58 / Fold change vs veh, SNORA58 / RFU, C1orf63 / Fold change vs veh, C1orf63 / RFU, LRRFIP1 / Fold change vs veh, LRRFIP1 / RFU, NDUFAF7 / Fold change vs veh, NDUFAF7 / RFU, SLC12A2 / Fold change vs veh, SLC12A2 / RFU, IBTK / Fold change vs veh, IBTK / RFU, ESF1 / Fold change vs veh, ESF1 / Fold change vs veh, TMEM50B / RFU, TAOK1 / Fold change vs veh, TAOK1 / RFU, ACBD3 / Fold change vs veh, ACBD3 / RFU, TMA16 / Fold change vs veh, TMA16 / RFU, RWDD3 / Fold change vs veh, RWDD3 / RFU, BCAT1 / Fold change vs veh, BCAT1 / RFU, EDEM3 / Fold change vs veh, EDEM3 / RFU, TMEM33 / Fold change vs veh, TMEM33 / RFU, WDR75 / Fold change vs veh, WDR75 / RFU, AHCTF1 / Fold change vs veh, AHCTF1 / RFU, TFRC / Fold change vs veh, TFRC / RFU, ZDHHC17 / Fold change vs veh, ZDHHC17 / RFU, NOM1 / Fold change vs veh, NOM1 / RFU, ARL8B / Fold change vs veh, ARL8B / RFU, ZBTB11 / Fold change vs veh, ZBTB11 / RFU, TAMM41 / Fold change vs veh, TAMM41 / RFU, KIAA1704 /// LOC100996395 / Fold change vs veh, KIAA1704 /// LOC100996395 / RFU, ING1 / Fold change vs veh, ING1 / RFU, TRMT61B / Fold change vs veh, TRMT61B / RFU, FUBP3 / Fold change vs veh, FUBP3 / RFU, TP53 / Fold change vs veh, TP53 / RFU, TNKS2 / Fold change vs veh, TNKS2 / RFU, ZFP14 / Fold change vs veh, ZFP14 / RFU, ACTR2 / Fold change vs veh, ACTR2 / RFU, PPP3R1 / Fold change vs veh, PPP3R1 / RFU, PIK3R1 / Fold change vs veh, PIK3R1 / RFU, HNRNPA1 / Fold change vs veh, HNRNPA1 / RFU, RNF170 / Fold change vs veh, RNF170 / RFU, ZNF28 / Fold change vs veh, ZNF28 / RFU, RNGTT / Fold change vs veh, RNGTT / RFU, OGT / Fold change vs veh, OGT / RFU, BRD1 / Fold change vs veh, BRD1 / RFU, MARS / Fold change vs veh, MARS / RFU, ZNF655 / Fold change vs veh, ZNF655 / RFU, FAHD1 / Fold change vs veh, FAHD1 / RFU, BDP1 / Fold change vs veh, BDP1 / RFU, LRRCC1 / Fold change vs veh, LRRCC1 / RFU, ARID1A / Fold change vs veh, ARID1A / RFU, ZNF146 / Fold change vs veh, ZNF146 / RFU, ZNF330 / Fold change vs veh, ZNF330 / RFU, GPN3 / Fold change vs veh, GPN3 / RFU, C9orf123 / Fold change vs veh, C9orf123 / RFU, N4BP2L2 / Fold change vs veh, N4BP2L2 / RFU, ARFIP1 / Fold change vs veh, ARFIP1 / RFU, FAM179B / Fold change vs veh, FAM179B / RFU, BCL10 / Fold change vs veh, BCL10 / RFU, UHRF1BP1L / Fold change vs veh, UHRF1BP1L / RFU, BET1 / Fold change vs veh, BET1 / RFU, CNOT2 / Fold change vs veh, CNOT2 / RFU, ZNF268 / Fold change vs veh, ZNF268 / Fold change vs veh, ZNF507 / RFU, DGCR2 / Fold change vs veh, DGCR2 / RFU, WDSUB1 / Fold change vs veh, WDSUB1 / Fold change vs veh, HSP90B1 /// MIR3652 / RFU, ADSS / Fold change vs veh, ADSS / RFU, GK / Fold change vs veh, GK / RFU, ZNF148 / Fold change vs veh, ZNF148 / RFU, TAF9 / Fold change vs veh, TAF9 / RFU, SLC1A5 / Fold change vs veh, SLC1A5 / RFU, SLMO2 / Fold change vs veh, SLMO2 / RFU, ABCC4 / Fold change vs veh, ABCC4 / RFU, LOC101060439 /// RAP1B / Fold change vs veh, LOC101060439 /// RAP1B / RFU, RFX7 / Fold change vs veh, RFX7 / RFU, GTPBP10 / Fold change vs veh, GTPBP10 / RFU, CNEP1R1 / Fold change vs veh, CNEP1R1 / RFU, BIVM-ERCC5 /// ERCC5 / Fold change vs veh, BIVM-ERCC5 /// ERCC5 / RFU, ILF3 / Fold change vs veh, ILF3 / RFU 11762660_at / Fold change /veh 11762660_at / RFU VCAN (11757783_s_at) / Fold change /veh VCAN (11757783_s_at) / RFU DDX43 (11728927_at) / Fold change /veh DDX43 (11728927_at) / RFU KRT8 (11758188_x_at) / Fold change /veh KRT8 (11758188_x_at) / RFU NKD1 (11759106_at) / Fold change /veh NKD1 (11759106_at) / RFU SRD5A1 (11742802_a_at) / Fold change /veh SRD5A1 (11742802_a_at) / RFU TPSAB1 /// TPSB2 (11721975_s_at) / Fold change /veh TPSAB1 /// TPSB2 (11721975_s_at) / RFU GSTM3 (11746129_a_at) / Fold change /veh GSTM3 (11746129_a_at) / RFU IL23R (11737362_x_at) / Fold change /veh IL23R (11737362_x_at) / RFU TMEM51 (11727254_a_at) / Fold change /veh TMEM51 (11727254_a_at) / RFU PIWIL2 (11732686_x_at) / Fold change /veh PIWIL2 (11732686_x_at) / RFU ORM1 (11744905_x_at) / Fold change /veh ORM1 (11744905_x_at) / RFU CCDC152 (11743942_at) / Fold change /veh CCDC152 (11743942_at) / RFU ECM1 (11717891_a_at) / Fold change /veh ECM1 (11717891_a_at) / RFU IL23R (11748794_a_at) / Fold change /veh IL23R (11748794_a_at) / RFU TNFAIP8L3 (11732012_x_at) / Fold change /veh TNFAIP8L3 (11732012_x_at) / RFU MBOAT4 (11741988_at) / Fold change /veh MBOAT4 (11741988_at) / RFU 11764193_at / Fold change /veh 11764193_at / RFU TMEM53 (11763286_at) / Fold change /veh TMEM53 (11763286_at) / RFU MAGEB2 (11727129_at) / Fold change /veh MAGEB2 (11727129_at) / RFU TMEM200A (11744735_a_at) / Fold change /veh TMEM200A (11744735_a_at) / RFU CCDC152 (11751479_a_at) / Fold change /veh CCDC152 (11751479_a_at) / RFU FAM211A (11726209_a_at) / Fold change /veh FAM211A (11726209_a_at) / RFU RGS16 (11746705_a_at) / Fold change /veh RGS16 (11746705_a_at) / RFU VCAN (11755009_s_at) / Fold change /veh VCAN (11755009_s_at) / RFU RHOB (11743442_s_at) / Fold change /veh RHOB (11743442_s_at) / RFU RGS16 (11720943_a_at) / Fold change /veh RGS16 (11720943_a_at) / RFU RGS16 (11720944_at) / Fold change /veh RGS16 (11720944_at) / RFU, VPS4B / Fold change vs veh, VPS4B / RFU, CREB1 / Fold change vs veh, CREB1 / RFU, DNAJC13 / Fold change vs veh, DNAJC13 / RFU, GNAQ / Fold change vs veh, GNAQ / RFU, CDK5R1 / Fold change vs veh, CDK5R1 / RFU, ZRANB3 / Fold change vs veh, ZRANB3 / RFU, CUL4A / Fold change vs veh, CUL4A / RFU, CCNY / Fold change vs veh, CCNY / RFU, UFL1 / Fold change vs veh, UFL1 / RFU, COG3 / Fold change vs veh, COG3 / RFU, DIAPH2 / Fold change vs veh, DIAPH2 / RFU, SKA2 / Fold change vs veh, SKA2 / RFU, AFF3 / Fold change vs veh, AFF3 / RFU, LMF1 / Fold change vs veh, LMF1 / RFU, IPO11 / Fold change vs veh, IPO11 / RFU, DFFB / Fold change vs veh, DFFB / RFU, FOXP1 / Fold change vs veh, FOXP1 / RFU, CARD8 / Fold change vs veh, CARD8 / RFU, STRN3 / Fold change vs veh, STRN3 / RFU, ADK / Fold change vs veh, ADK / RFU, RASSF2 / Fold change vs veh, RASSF2 / RFU, WIPF1 / Fold change vs veh, WIPF1 / RFU, LARP1B / Fold change vs veh, LARP1B / RFU, RASA1 / Fold change vs veh, RASA1 / RFU, RB1 / Fold change vs veh, RB1 / RFU, PPFIA1 / Fold change vs veh, PPFIA1 / RFU, MAT2A / Fold change vs veh, MAT2A / RFU, CCT5 / Fold change vs veh, CCT5 / RFU, WDR92 / Fold change vs veh, WDR92 / RFU, CUX1 / Fold change vs veh, CUX1 / RFU, TTC7A / Fold change vs veh, TTC7A / RFU, TMEM135 / Fold change vs veh, TMEM135 / RFU, DEPTOR / Fold change vs veh, DEPTOR / RFU, CPM / Fold change vs veh, CPM / RFU, DNAJB6 / Fold change vs veh, DNAJB6 / RFU, CACNA2D3 / Fold change vs veh, CACNA2D3 / RFU, DTX4 / Fold change vs veh, DTX4 / RFU, TFCP2 / Fold change vs veh, TFCP2 / RFU, GMCL1 /// GMCL1P1 / Fold change vs veh, GMCL1 /// GMCL1P1 / RFU, AEBP2 / Fold change vs veh, AEBP2 / RFU, SNHG1 /// SNORD22 /// SNORD25 /// SNORD26 /// SNORD27 /// SNORD28 /// SNORD29 /// SNORD31 / Fold change vs veh, SNHG1 /// SNORD22 /// SNORD25 /// SNORD26 /// SNORD27 /// SNORD28 /// SNORD29 /// SNORD31 / Fold change (Aza/veh), C12orf56 (ProbeSet 11735607_a_at) / Fold change (ACY-1035/veh), C12orf56 (ProbeSet 11735607_a_at) / Fold change (Aza/veh), FGFR1OP (ProbeSet 11751329_s_at) / Fold change (ACY-1035/veh), FGFR1OP (ProbeSet 11751329_s_at) / Fold change (Aza/veh), VPS36 (ProbeSet 11739960_a_at) / Fold change (ACY-1035/veh), VPS36 (ProbeSet 11739960_a_at) / RFU SYPL1 (11715823_x_at) / Fold change /veh SYPL1 (11715823_x_at) / RFU IGFBP7 (11715501_s_at) / Fold change /veh IGFBP7 (11715501_s_at) / RFU REEP3 (11722064_at) / Fold change /veh REEP3 (11722064_at) / RFU IGLL1 (11728026_x_at) / Fold change /veh IGLL1 (11728026_x_at): dose or concentration left out as unconfirmed
Conditions: MV-4-11 cells, 48 hours

## Nc1ncn([C@@H]2O[C@H](CO)[C@@H](O)[C@H]2O)c(=O)n1 [azacitidine]
  Fold change /veh LOC101060620 /// MAPK8IP1 (11723275_at): 0.98
